This is an account of results in PMC5594493, “Antiproliferative factor (APF) binds specifically to sites within the cytoskeleton-associated protein 4 (CKAP4) extracellular domain” (BMC Biochemistry, 2017).

Where “and” joins values, the source holds several entries; their conditions need not be identical. Identical values can stand only once. Entries after “also recorded” stand apart in the source; their conditions may differ.

For test [1], the system named is normal bladder epithelial cells. Particulars: in vitro; background statement, no reference given; read-out: IC50, growth inhibition; cited from earlier work. The source says: (§1) The effects that APF has on cells are remarkable and unique among the reported ligands for CKAP4.
For the next test, the system named is HeLa cells. The note with it: in vitro; background statement, no reference given; read-out: IC50, growth inhibition; cited from earlier work.
From the text: as §1

The subject of test [2] is CKAP4. The note with it: ref [17], [18]; cited from earlier work.
From the text: as §1

For another test, the system named is bladder carcinoma cells. The note with it: in vitro; background statement, no reference given; read-out: IC50, growth inhibition; cited from earlier work.
From the text: as §1

The subject of a further test is CKAP4_106–602. Put plainly: SPR, CKAP4_106–602 as immobilized ligand. The test is classed as binding. Particulars: CKAP4_106–602 immobilized on NTA chip. As for the experimental part:
(§2) All SPR experiments were performed on a Biacore X-100 instrument (GE Healthcare) with the chip surface at 25 °C using PBS containing 0.01% Tween-20 as running buffer. CKAP4 recombinant proteins were immobilized individually either by Ni^2+/nitrilotriacetic acid (NTA) chelation on Sensor Chip NTA or by amine-coupling on Sensor Chip CM5, on the Fc2 channel. For amine-coupling, the sensor surface on both flow cells was activated for 7 min with a 1:1 mixture of 0.1 M EDC (1-ethyl-3-(3-dimethylaminopropyl) carbodiimide hydrochloride) and 0.1 M NHS (N-hydroxysuccinimide) at a flow rate of 5 μl/min. Immobilization of CKAP4 proteins (on Fc2) was performed in 10 mM sodium acetate buffer, at either pH 4.5, 5.0, or 5.5 based on preliminary pH scouting runs, for optimal binding. Unreacted NHS groups were quenched with a 7 min injection of 1 M ethanolamine pH 8.5. The Fc1 channel was treated similarly but without CKAP4 and served as a reference. Upon stabilization of the baseline signal, multi-cycle kinetics assays were performed with injections of as-APF as analyte at various concentrations (2.5–40 μM) in running buffer at 30 μl/min for 2 min, immediately followed by a 3 min dissociation phase. […] The data were analyzed using Biacore Evaluation software V2.0. […]

The test system of test [3] is CKAP4. The test is described as follows: SPR binding to CKAP4 recombinant proteins (overall statements). The note with it: comparison of as-APF, APF and control peptide. As for the experimental part: as §2
(In general: In SPR one partner is held on a chip, and binding of the other changes the refractive index at the surface.)

Test [4] has as its system T24 bladder carcinoma cells. Put plainly: XTT cell proliferation assay, T24. The test is classed as cell-based. The note with it: 20 nM, 96 h, serum-free, relative to vehicle/control, at least four independent times, P < 0.0001 vs control, as-APF vs APF P = 0.0103 (unpaired t-test, Welch's correction). On the procedure:
T24 bladder carcinoma cells (ATCC #HTB-4; Manassas, VA) were maintained in HyClone-formulated McCoy’s 5A modified media (Catalog #SH30525.01) supplemented with 10% fetal bovine serum (FBS) (Atlanta Biologicals, Flowery Branch, GA), 100 U/ml penicillin, and 100 μg/ml streptomycin (Invitrogen, Carlsbad, CA). Cell proliferation was measured using the XTT Cell Proliferation Assay Kit (ATCC). T24 cells were seeded at 1 × 10^3–4 × 10^3 per well in a 48-well plate in 300 μl/well McCoy’s supplemented medium. Cells were serum-starved for 24 h and then treated with either 20 nM APF, 20 nM as-APF, or 25 μM H2O2 (antiproliferative control) diluted in serum-free McCoy’s medium. Cells were incubated at 37 °C in a 5% CO2 atmosphere for an additional 96 h, after which 150 μl of activated–XTT solution was added to each well followed by an additional 3 h incubation. Absorbance was then measured at 475 nm and 660 nm using an M5 microplate reader (Molecular Devices, Sunnyvale, CA), and the specific absorbance was calculated. P values were assigned using unpaired t-test with Welch’s correction. The assay was repeated four independent times.
In general terms: Tetrazolium assays rely on reduction of a dye to a coloured formazan, in cell work by metabolically active cells.

For another test, the target named is T1, CKAP4_127–602 (Homo sapiens, UniProt Q07065).
T1 construct: encompassing only the extracellular domain (Aa 127–602) tagged at the C-terminus with a His-tag (CKAP4_127–602); His-tag (C); made in house; host or cells: E. coli BL21(DE3)pLysS
T1 sequence (Q07065 127-602): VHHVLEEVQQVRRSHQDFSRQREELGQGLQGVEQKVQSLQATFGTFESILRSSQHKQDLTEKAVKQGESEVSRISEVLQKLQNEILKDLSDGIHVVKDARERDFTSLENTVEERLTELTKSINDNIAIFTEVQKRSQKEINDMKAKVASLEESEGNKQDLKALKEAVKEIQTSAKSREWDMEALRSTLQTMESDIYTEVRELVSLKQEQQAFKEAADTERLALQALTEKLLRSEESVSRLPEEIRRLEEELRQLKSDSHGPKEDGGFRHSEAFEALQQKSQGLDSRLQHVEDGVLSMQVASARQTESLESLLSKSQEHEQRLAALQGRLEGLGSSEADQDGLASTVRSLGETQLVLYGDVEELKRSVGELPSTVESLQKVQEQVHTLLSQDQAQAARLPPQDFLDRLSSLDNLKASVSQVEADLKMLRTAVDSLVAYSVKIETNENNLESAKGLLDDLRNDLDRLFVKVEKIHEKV
The test is described as follows: SPR, CKAP4_127–602 as immobilized ligand. It counts as binding. The note with it: CKAP4_127–602 immobilized on NTA chip. On the procedure:
as §2

As usually defined, the IC50 is the concentration at which inhibition is half-maximal. As to “Neu5Acα2 − 3Galβ1 − 3GalNAcα-O-TVPAAVVVA [APF]”, the IC50 (in test [1]; with HeLa cells; in the test on bladder carcinoma cells) was about 1 nM throughout. For the same substance, in the test on CKAP4 [2], the “effect on CKAP4 localization” value was “internalization, nuclear translocation”. Further, the results for the binding result with CKAP4_106–602 and at CKAP4_127–602 were “did not bind robustly; also recorded: did not generate sufficient binding” and “did not bind robustly”, respectively. Besides, the “binding to CKAP4 (in words)” value with CKAP4 [3] is recorded as “bound to CKAP4 with high specificity compared to control APF peptide”. For the same substance, the “reduction of T24 cell proliferation” value in test [4] was 47% and 47.08 ± 12.88%.
